Experimental data reported in BigSolDB 2.1.

CNC(=O)NC
solubility (mole fraction)
Settings	288.15 K	293.15 K	298.15 K	303.15 K	308.15 K	313.15 K	318.15 K	323.15 K	328.15 K
in acetone	0.129	0.152	0.177	0.202	0.228	0.261	0.301	0.339	0.376
in acetonitrile	0.102	0.128	0.151	0.186	0.216	0.25	0.282	0.322	0.363
in ethyl acetate	0.0302	0.0421	0.0608	0.0825	0.111	0.14	0.175	0.22	0.271
in isopropanol	0.331	0.352	0.372	0.39	0.416	0.438	0.471	0.5	0.533
in n-butyl acetate	0.0137	0.0205	0.0296	0.0408	0.0602	0.0834	0.111	0.148	0.195
in sec-butanol	0.325	0.353	0.381	0.412	0.438	0.46	0.494	0.523	0.561
in water	0.362	0.38	0.405	0.436	0.464	0.494	0.533	0.57	0.601
